Experimental findings from ChEMBL document CHEMBL3351993, “Design, synthesis and docking study of 5-(substituted benzylidene)thiazolidine-2,4-dione derivatives as inhibitors of protein tyrosine phosphatase 1B” (Bioorg Med Chem Lett, 2014) are described below.

The target of the experiment is T1, Tyrosine-protein phosphatase non-receptor type 1 (Homo sapiens, UniProt P18031).
T1 sequence (P18031 whole entry): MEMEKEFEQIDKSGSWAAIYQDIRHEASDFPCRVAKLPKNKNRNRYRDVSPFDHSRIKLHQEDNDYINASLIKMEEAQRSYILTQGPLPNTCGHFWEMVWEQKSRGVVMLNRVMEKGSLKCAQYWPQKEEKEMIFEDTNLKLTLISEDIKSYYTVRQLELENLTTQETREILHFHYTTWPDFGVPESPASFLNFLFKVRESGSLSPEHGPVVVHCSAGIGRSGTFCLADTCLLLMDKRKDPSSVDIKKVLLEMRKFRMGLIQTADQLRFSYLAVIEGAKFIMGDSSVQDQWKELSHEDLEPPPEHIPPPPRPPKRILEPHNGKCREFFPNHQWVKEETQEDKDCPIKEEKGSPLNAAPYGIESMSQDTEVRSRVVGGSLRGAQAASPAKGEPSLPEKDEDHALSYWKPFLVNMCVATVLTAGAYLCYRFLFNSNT
As to the kind of experiment: Inhibition of human recombinant PTP1B using pNPP substrate at 37 degC measured after 30 mins.

Structures are written as SMILES. A value given as a limit tells only on which side of the number the result lay.

Regarding `C=CCc1cc(/C=C2\SC(=O)N(CC=C)C2=O)c(OC)cc1OC1CCCCO1` (centres undefined), the IC50 was greater than 30 µM.

In the case of `C=CCc1cc(/C=C2\SC(=O)N(C)C2=O)c(OC)cc1OC1CCCCO1` (centres undefined), the IC50 is greater than 30 µM.

As for `CCCCOc1cc(OC)c(/C=C2\SC(=O)N(C(C)C)C2=O)cc1Br`, the IC50 was determined as 9.7 µM.

With `COc1cc(OCC=C(C)C)c(Br)cc1/C=C1\SC(=O)N(Cc2ccccc2)C1=O`, the IC50 came out at 10.3 µM.

With `C=CCN1C(=O)S/C(=C\c2cc(Br)c(OCCCC)cc2OC)C1=O`, the IC50 was found to be 7.9 µM.

Turning to `COc1cc(OCC=C(C)C)c(Br)cc1/C=C1\SC(=O)N(CC=C(C)C)C1=O`, the IC50 was determined as 10 µM.

Take `COc1cc(OCc2ccccc2)c(Br)cc1/C=C1\SC(=O)NC1=O`: the IC50 was 7.6 µM.

Take `C=CCc1cc(/C=C2\SC(=O)N(Cc3ccccc3)C2=O)c(OC)cc1O`: the half-maximal inhibitory concentration (IC50) was determined as 7.2 µM.

For the molecule `COc1cc(OCC=C(C)C)c(Br)cc1/C=C1\SC(=O)N(C)C1=O`, the half-inhibitory concentration (IC50) was determined as 8.2 µM.

`COc1cc(OCc2ccccc2)c(Br)cc1/C=C1\SC(=O)N(C)C1=O`: the IC50 turned out to be 8.1 µM.

On to `C=CCc1cc(/C=C2\SC(=O)NC2=O)c(OC)cc1OC1CCCCO1` (centres undefined), for which the IC50 stood at 12.2 µM.

Regarding `CCCCOc1cc(OC)c(/C=C2\SC(=O)N(Cc3ccccc3)C2=O)cc1Br`, the IC50 was found to be 6.6 µM.

On to `C=CCN1C(=O)S/C(=C\c2cc(Br)c(OCC=C(C)C)cc2OC)C1=O`, for which the IC50 worked out at 17 µM.

In the case of `C=CCc1cc(/C=C2\SC(=O)N(C)C2=O)c(OC)cc1O`, the IC50 is greater than 30 µM.

On to `C=CCc1cc(/C=C2\SC(=O)N(CC=C(C)C)C2=O)c(OC)cc1O`, for which the IC50 was determined as 12 µM.

With `COc1cc(OC)c(/C=C2\SC(=O)NC2=O)cc1Br`, the IC50 turned out to be 14.2 µM.

Consider `COc1cc(OCC=C(C)C)c(Br)cc1/C=C1\SC(=O)NC1=O`, for which the IC50 amounted to 5.3 µM.

As for `CCCCOc1cc(OC)c(/C=C2\SC(=O)N(C)C2=O)cc1Br`, the IC50 is 12.1 µM.

Regarding `C=CCc1cc(/C=C2\SC(=O)N(CC=C(C)C)C2=O)c(OC)cc1OC1CCCCO1` (centres undefined), the IC50 came to 22.7 µM.

On to `COc1cc(O)ccc1/C=C1\SC(=O)NC1=O`, for which the IC50 is 29.8 µM.

On to `C=CCc1cc(/C=C2\SC(=O)NC2=O)c(OC)cc1O`, for which the concentration for half-maximal inhibition (IC50) was determined as 29.3 µM.

Consider `COc1cc(OCC=C(C)C)c(Br)cc1/C=C1\SC(=O)N(C(C)C)C1=O`, for which the half-maximal inhibitory concentration (IC50) was 4.6 µM.

For the molecule `CCCCOc1cc(OC)c(/C=C2\SC(=O)N(CCCC)C2=O)cc1Br`, the IC50 was greater than 30 µM.

Turning to `C=CCOc1cc(OC)c(/C=C2\SC(=O)NC2=O)cc1Br`, the IC50 amounted to 8.1 µM.

Turning to `COc1cc(O)c(Br)cc1/C=C1\SC(=O)NC1=O`, the IC50 was 11.3 µM.

In the case of `COc1cc(OC)c(/C=C2\SC(=O)N(C)C2=O)cc1Br`, the IC50 worked out at 22.3 µM.

`CCCCOc1cc(OC)c(/C=C2\SC(=O)NC2=O)cc1Br`: the half-inhibitory concentration (IC50) was 4.9 µM.

Regarding `CCCCN1C(=O)S/C(=C\c2cc(Br)c(OCC=C(C)C)cc2OC)C1=O`, the IC50 came out at 12.3 µM.

Turning to `C=CCc1cc(/C=C2\SC(=O)N(Cc3ccccc3)C2=O)c(OC)cc1OC1CCCCO1` (centres undefined), the IC50 was greater than 30 µM.

For the molecule `C=CCc1cc(/C=C2\SC(=O)N(CCCC)C2=O)c(OC)cc1OC1CCCCO1` (centres undefined), the IC50 stood at 20.6 µM.

With `C=CCc1cc(/C=C2\SC(=O)N(C(C)C)C2=O)c(OC)cc1O`, the half-maximal inhibitory concentration (IC50) was 6.4 µM.

With `C=CCc1cc(/C=C2\SC(=O)N(CC=C)C2=O)c(OC)cc1O`, the IC50 is greater than 30 µM.

In the case of `C=CCc1cc(/C=C2\SC(=O)N(CCCC)C2=O)c(OC)cc1O`, the IC50 came to 9.6 µM.

On to `C=CCc1cc(/C=C2\SC(=O)N(C(C)C)C2=O)c(OC)cc1OC1CCCCO1` (centres undefined), for which the half-inhibitory concentration (IC50) was greater than 30 µM.

Usually IC50 stands for the concentration that gives 50% inhibition.
